Data set [1] has as its target Aβ40 (Homo sapiens, UniProt P05067). As to the kind of experiment: Inhibition of Aβ40 self-aggregation (thioflavin T fluorescence, 2% HFIP). The note with it: for inhibition at 100 µM: read-out: Aβ40 Aggregation Inhibition % at 100 μM.
Protocol: All the newly prepared compounds were tested in a routine in vitro assay of inhibition of Aβ40 self-aggregation [25].
(§1) All assays were performed in 96-well plates (Greiner Bio-One, Kremsmünster, Austria) using an Infinite M1000 Pro plate reader (Tecan, Cernusco s.N., Italy). Inhibition data were obtained as mean ± SD (for single concentration points) or mean ± SEM from three independent experiments (for IC50s), using Prism (GraphPad Prism version 5.00 for Windows, GraphPad Software, San Diego, CA, USA).
Assay of aggregation of Aβ40 (EzBiolab, Carmel, IN, USA) was performed as described [25], using 2% of 1,1,1,3,3,3-hexafluoro-2-propanol as aggregation enhancer and spectrofluorimetric detection of thioflavin T fluorescence as the probe of amyloid aggregation.
For data set [2], the target named is T1, human recombinant AChE (Homo sapiens, UniProt P22303).
T1 construct: purchased Sigma Aldrich
As to the kind of experiment: biochemical. To be noted: for inhibition at 10 µM: read-out: hAChE % Inhib. at 10 μM.
Protocol: as §1

In data set [3] the target is T2, human recombinant monoamine oxidase B (Homo sapiens, UniProt P27338).
T2 construct: purchased Sigma Aldrich; host or cells: baculovirus infected insect cells (microsomes)
T2 sequence (P27338 1-520): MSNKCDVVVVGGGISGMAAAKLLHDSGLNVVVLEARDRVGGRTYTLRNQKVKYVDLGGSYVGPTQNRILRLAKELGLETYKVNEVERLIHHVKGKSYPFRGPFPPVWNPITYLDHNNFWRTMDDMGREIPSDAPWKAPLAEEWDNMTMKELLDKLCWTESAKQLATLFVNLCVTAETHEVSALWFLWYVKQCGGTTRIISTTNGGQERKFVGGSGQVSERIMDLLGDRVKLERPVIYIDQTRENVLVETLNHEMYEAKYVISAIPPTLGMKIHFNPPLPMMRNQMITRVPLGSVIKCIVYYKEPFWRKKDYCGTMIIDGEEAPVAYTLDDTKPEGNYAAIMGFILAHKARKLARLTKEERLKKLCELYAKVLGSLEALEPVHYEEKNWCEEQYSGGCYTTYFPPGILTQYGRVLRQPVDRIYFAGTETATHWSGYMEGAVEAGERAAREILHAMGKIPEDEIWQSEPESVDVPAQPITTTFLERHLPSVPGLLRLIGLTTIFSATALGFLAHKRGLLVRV
As to the kind of experiment: Inhibition of monoamine oxidase B (kynuramine). The format is biochemical. The note with it: for inhibition at 10 µM: read-out: hMAO B % Inhib. at 10 μM.
Protocol: as §1
(§2) Inhibition of human recombinant monoamine oxidases A (250 U/mg) and B (59 U/mg; microsomes from baculovirus infected insect cells; Sigma Aldrich) was determined as already described [48], measuring the fluorescence of 4-hydroxyquinoline produced by the oxidative deamination of substrate kynuramine.

Data set [4] deals with T3, human recombinant monoamine oxidase A (Homo sapiens, UniProt P21397).
T3 construct: purchased Sigma Aldrich; host or cells: baculovirus infected insect cells (microsomes)
T3 sequence (P21397 1-527): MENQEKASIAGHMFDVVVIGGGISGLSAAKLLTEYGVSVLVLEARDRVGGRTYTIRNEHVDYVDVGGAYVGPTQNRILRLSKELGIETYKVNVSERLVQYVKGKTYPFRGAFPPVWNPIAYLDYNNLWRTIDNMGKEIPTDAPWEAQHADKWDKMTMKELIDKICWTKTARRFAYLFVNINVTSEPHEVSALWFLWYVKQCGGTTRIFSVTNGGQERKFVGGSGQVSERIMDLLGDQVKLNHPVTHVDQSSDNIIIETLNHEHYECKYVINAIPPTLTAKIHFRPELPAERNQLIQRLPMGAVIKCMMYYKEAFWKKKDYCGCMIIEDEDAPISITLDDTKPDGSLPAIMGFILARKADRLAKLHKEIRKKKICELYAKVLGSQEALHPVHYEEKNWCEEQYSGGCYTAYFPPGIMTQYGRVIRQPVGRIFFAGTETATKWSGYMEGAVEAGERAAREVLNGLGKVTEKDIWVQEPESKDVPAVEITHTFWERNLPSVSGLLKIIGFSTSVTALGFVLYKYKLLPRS
The experiment in a line: Inhibition of monoamine oxidase A (kynuramine). The format is biochemical. To be noted: read-out: hMAO A % Inhib. at 10 μM.
Protocol: as §1, §2

The target of data set [5] is T4, tau protein (Homo sapiens, UniProt P10636).
T4 construct: inclusions bodies (IBs) formed by tau full-length protein in bacteria; expressed in transfected cells; host or cells: Escherichia coli BL21 (DE3), plasmids pTARA and pRKT42
T4 sequence (P10636 other isoform, or with tags, fused parts or gaps): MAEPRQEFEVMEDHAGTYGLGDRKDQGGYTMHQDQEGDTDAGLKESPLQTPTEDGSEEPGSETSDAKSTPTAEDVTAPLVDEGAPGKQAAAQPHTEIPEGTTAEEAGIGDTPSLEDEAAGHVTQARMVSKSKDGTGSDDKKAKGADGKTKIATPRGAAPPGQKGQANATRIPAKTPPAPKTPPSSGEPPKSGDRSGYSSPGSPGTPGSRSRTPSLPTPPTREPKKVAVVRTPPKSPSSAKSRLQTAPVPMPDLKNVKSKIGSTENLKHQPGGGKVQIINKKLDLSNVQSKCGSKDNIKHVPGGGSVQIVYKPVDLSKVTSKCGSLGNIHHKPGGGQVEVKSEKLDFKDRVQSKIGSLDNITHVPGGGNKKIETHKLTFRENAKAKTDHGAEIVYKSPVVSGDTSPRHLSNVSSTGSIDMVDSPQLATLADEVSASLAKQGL
The experiment in a line: Tau aggregation inhibition assay in bacterial cells (thioflavin S fluorescence). The format is cell-based, Escherichia coli BL21 (DE3). To be noted: cell-based assay, 10 μM. From the text:
The deposition of aggregates of hyperphosphorylated tau protein constitutes the intracellular neurofibrillary tangles, a major histological evidence of AD. The role of tau hyperphosphorylation and aggregation in AD has established both of them as a target for therapeutic intervention, although only N,N,N′,N′-tetramethyl-10H-phenothiazine-3,7-diaminium (TRX0237, leucomethyl-thioninium), the reduced form of methylene blue dye, acting as an inhibitor of tau aggregation, has reached the clinical phase III [26]. In recent years, some of us developed an efficient cell-based assay of tau aggregation, a simple and inexpensive method that provides a straightforward assay to evaluate the putative anti-aggregation capacity of small molecules. This method relies on the use of bacteria overexpressing amyloid-prone proteins to monitor the amyloid aggregation, thus constituting a physiologically relevant model. In particular, it exploits amyloid properties of the inclusions bodies (IBs) formed by tau full-length protein in bacteria stained by thioflavin S (ThS), a specific amyloid dye, to address the bacterial amyloid aggregation and the effect of anti-amyloid compounds in this polymerization process.
Escherichia coli competent cells BL21 (DE3) were transformed with pTARA containing the RNA-polymerase gen of T7 phage (T7RP) under the control of the promoter PBAD and pRKT42 vector encoding four repeats of tau protein in two inserts. Because of the addition of the initiation codon ATG in front of gene, the over-expressed protein contains an additional methionine residue at its N terminus. Tau anti-aggregating activities of the target compounds were assessed in E. coli cells, as previously described. M9 minimal medium (10 mL) containing 0.5% of glucose, 100 μg/mL of ampicillin and 12.5 μg/mL of chloramphenicol was inoculated with a colony of BL21 (DE3) cells bearing the plasmids. To fresh M9 minimal medium containing 0.5% of glucose, 50 μg/mL of ampicillin, 12.5 μg/mL of chloramphenicol, and 250 µM of ThS, the volume of overnight culture necessary to get a 1:500 dilution was added. The cultures were grown at 37 °C and 250 rpm overnight until cell density reached OD600 = 0.6. A volume of 980 μL of the cultures was transferred into 1.5 mL Eppendorf tubes that contained 10 μL of a solution of the target compound in DMSO and 10 μL of arabinose at 25%, leading to a final inhibitor concentration of 10 μM. The resulting cultures were grown at 37 °C and 1400 rpm with a Thermomixer (Eppendorf, Hamburg, Germany) overnight. The same amount of DMSO without the target compound was added to the sample as a negative control (maximal amount of tau), whereas non-induced samples (in the absence of arabinose) were prepared as positive controls (absence of tau), and to assess the potential intrinsic toxicity of the target compounds. In addition, the absorbance at 600 nm of these samples was assessed to confirm the correct bacterial growth, discarding potential intrinsic toxicity of compounds. To determine the IC50 values, the same protocol was followed but only modifying the initial concentration of compounds. In order to use different final concentrations of compound, we performed a dilutions banc from a stock solution of 100 mM in […].
ThS fluorescence and absorbance were tracked using a DTX 800 plate reader Multimode Detector equipped with a Multimode Analysis Software (Beckman-Coulter, Indianapolis, IN, USA). Filters of 430/35 and 485/20 nm were used for the excitation and emission wavelengths, respectively. 535/25 nm filters were also used for the absorbance determination. It should be stressed that ThS fluorescence normalization was carried out considering as 100% the ThS fluorescence of the bacterial cells expressing tau in the absence of compounds and 0% the ThS fluorescence of the bacterial cells non-expressing tau.

The results in this text go back to article PMC7731220, “Pharmacophore Modeling and 3D-QSAR Study of Indole and Isatin Derivatives as Antiamyloidogenic Agents Targeting Alzheimer’s Disease” (Molecules, 2020).

One may read the melting point as the temperature, or range, at which the solid turns liquid. As a reminder, the IC50 is the concentration that gives 50% inhibition.

Sequence of Aβ40 (P05067 672-711 limits assumed): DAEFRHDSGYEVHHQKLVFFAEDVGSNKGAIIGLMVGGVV
T1 sequence (P22303 32-614): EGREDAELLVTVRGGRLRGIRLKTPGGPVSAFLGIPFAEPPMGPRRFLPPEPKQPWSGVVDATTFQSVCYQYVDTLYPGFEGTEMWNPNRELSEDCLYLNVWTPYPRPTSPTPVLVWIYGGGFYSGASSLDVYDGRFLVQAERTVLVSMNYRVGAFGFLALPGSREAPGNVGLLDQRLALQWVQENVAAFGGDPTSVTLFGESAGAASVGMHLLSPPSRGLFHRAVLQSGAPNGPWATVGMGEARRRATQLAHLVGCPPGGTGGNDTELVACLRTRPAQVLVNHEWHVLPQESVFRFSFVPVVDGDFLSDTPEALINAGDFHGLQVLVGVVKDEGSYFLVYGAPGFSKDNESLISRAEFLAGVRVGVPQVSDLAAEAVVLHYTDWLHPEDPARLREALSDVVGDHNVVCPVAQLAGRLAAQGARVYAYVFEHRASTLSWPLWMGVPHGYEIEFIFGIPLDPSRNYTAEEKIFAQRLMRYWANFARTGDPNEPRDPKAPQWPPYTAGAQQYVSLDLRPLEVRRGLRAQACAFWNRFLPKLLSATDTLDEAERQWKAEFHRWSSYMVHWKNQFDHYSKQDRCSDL

As to `N/N=C1\C(=O)Nc2ccc([N+](=O)[O-])cc21` [Compound 3, (Z)-3-Hydrazineylidene-5-nitroindolin-2-one], the melting point fell in the range of 217 to 219 °C. Also, in data set [1], the inhibition at 100 µM is 11 ± 3%.
Consider `CN1C(=O)C(=NNc2cccc(OCc3ccccc3)c2)c2ccccc21` [Compound 7, 3-(2-(3-(Benzyloxy)phenyl)hydrazineylidene)-1-methylindolin-2-one], for which the inhibition at 10 µM in data set [2] turned out to be 48 ± 3%; in data set [3], 41 ± 1%; in data set [4] it was 29 ± 3%; in data set [5] it was 19 ± 2%. For the same compound, the IC50 in data set [1] was 2000 ± 300 nM.
In the case of `O=C1Nc2ccccc2C1=NNc1ccc(OCc2ccccc2)cc1` [Compound 8, 3-(2-(4-(Benzyloxy)phenyl)hydrazineylidene)indolin-2-one], the IC50 in data set [2] (read-out: hAChE IC50) worked out at 3900 ± 500 nM. Also, in data set [1], the inhibition at 100 µM was determined as 69 ± 3%. The inhibition at 10 µM in data set [3] was found to be 36 ± 4%; in data set [4], 8 ± 3%; in data set [5] it was 35 ± 2%.
On to `CN1C(=O)C(=NNc2ccc(OCc3ccccc3)cc2)c2ccccc21` [Compound 9, 3-(2-(4-(Benzyloxy)phenyl)hydrazineylidene)-1-methylindolin-2-one], for which the inhibition at 10 µM in data set [2] came to 48 ± 2%; in data set [4], 15 ± 3%; in data set [5], 20 ± 2%. The figures for the IC50 in data set [1] and in data set [3] (read-out: hMAO B IC50) were 950 ± 40 nM and 4000 ± 400 nM, respectively.
`COc1ccc2c(c1)C(=NNC(=O)c1ccccc1)C(=O)N2` [Compound 26, N′-(5-Methoxy-2-oxoindolin-3-ylidene)benzhydrazide]: the melting point was over 250 °C. In addition, in data set [1], the inhibition at 100 µM came out at 12 ± 5%.
For `O=C1C(=Cc2ccc(O)cc2)Nc2ccccc21` [Compound 27, 2-(4-Hydroxybenzylidene)indolin-3-one] the same measures were over 250 °C and 69 ± 1%.
For `CC(C)c1ccc(NN=C2NC(=O)c3ccccc32)cc1` [Compound 38, 3-(2-(4-Isopropylphenyl)hydrazineylidene)isoindolin-1-one] the same measures were 186 to 187 °C and 49 ± 5%.
For `O=C1C(c2c(O)nc3ccccc3c2O)=Nc2ccccc21` [Compound 43, 2-(2,4-Dihydroxyquinolin-3-yl)-3H-indol-3-one] the same measures were 90 to 92 °C and 17 ± 3%.
